Reference: ChEMBL document CHEMBL1124789, “Angiotensin-converting enzyme inhibitors. 9. Novel [[N-(1-carboxy-3-phenylpropyl)amino]acyl]glycine derivatives with diuretic activity” (J Med Chem, 1990)
The source made the active and inactive calls. The rule behind the calls is not given here.

Tests used:
Canis familiaris [1] = test: Diuretic activity (ip) was tested in dogs; NI-No Increase; assay type: functional, organism-based; conditions: Canis lupus familiaris; Urine
Canis familiaris [2] = test: Maximum percent decrease in blood pressure at the dose of 1.0 mg/kg ip; assay type: functional, Canis lupus familiaris; conditions: route intraperitoneal
[3] = target: T1, Angiotensin-converting enzyme (Rattus norvegicus) (UniProt P47820); test: Inhibition of Angiotensin I converting enzyme(ACE) at the dose of 10 mg/kg (po) in rat; assay type: organism-based; design: dose 10 mg/kg
T1 sequence (whole entry): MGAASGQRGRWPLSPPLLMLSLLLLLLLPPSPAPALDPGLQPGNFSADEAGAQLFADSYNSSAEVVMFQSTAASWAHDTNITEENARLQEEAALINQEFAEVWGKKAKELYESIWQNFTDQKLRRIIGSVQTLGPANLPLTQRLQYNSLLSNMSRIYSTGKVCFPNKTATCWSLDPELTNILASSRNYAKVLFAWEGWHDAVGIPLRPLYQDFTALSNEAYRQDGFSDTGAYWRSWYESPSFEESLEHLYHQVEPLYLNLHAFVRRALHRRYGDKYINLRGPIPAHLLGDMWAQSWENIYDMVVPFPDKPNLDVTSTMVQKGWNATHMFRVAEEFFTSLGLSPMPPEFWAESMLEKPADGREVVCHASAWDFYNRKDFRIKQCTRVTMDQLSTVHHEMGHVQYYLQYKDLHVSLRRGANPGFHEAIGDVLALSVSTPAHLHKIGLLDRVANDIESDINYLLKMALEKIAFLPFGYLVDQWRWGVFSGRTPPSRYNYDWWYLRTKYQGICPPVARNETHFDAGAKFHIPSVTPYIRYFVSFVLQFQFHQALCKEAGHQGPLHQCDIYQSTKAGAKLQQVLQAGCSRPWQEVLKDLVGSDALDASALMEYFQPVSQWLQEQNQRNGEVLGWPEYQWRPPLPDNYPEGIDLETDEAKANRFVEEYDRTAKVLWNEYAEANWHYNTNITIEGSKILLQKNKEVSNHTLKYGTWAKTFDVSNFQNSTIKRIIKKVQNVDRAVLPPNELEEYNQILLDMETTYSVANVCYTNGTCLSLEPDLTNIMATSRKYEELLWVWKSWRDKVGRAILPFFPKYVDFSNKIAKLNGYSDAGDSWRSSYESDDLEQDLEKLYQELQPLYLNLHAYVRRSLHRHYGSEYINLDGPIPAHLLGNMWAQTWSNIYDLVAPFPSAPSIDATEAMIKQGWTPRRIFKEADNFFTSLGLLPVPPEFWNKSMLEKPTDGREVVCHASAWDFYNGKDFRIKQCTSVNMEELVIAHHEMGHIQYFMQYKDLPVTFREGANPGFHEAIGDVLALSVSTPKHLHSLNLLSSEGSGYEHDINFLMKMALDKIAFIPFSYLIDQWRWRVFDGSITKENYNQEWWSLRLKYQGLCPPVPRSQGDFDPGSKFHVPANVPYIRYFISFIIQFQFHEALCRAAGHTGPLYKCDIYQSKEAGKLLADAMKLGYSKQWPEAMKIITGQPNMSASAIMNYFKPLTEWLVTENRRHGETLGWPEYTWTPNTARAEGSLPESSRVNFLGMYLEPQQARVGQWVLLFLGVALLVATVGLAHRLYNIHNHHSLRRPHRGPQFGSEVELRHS

Rattus norvegicus [4] = species on record: Rattus norvegicus; test: Duration of action on ACE in rat; assay type: functional
[5] = target: T1, Angiotensin-converting enzyme (Rattus norvegicus); test: Inhibition of Angiotensin I converting enzyme(ACE) at the dose of 10 mg/kg (ip) in rat; assay type: organism-based; design: dose 10 mg/kg; scale not given: the % may be the effect or the level left
Rattus norvegicus [6] = test: Diuretic activity (po);NI-No increase; assay type: functional, organism-based; conditions: Urine
[7] = target: T1, Angiotensin-converting enzyme (Rattus norvegicus); test: Inhibition of Angiotensin I converting enzyme(ACE) at the dose of 100 mg/kg (po) in rat; assay type: organism-based; design: dose 100 mg/kg
[8] = target: T2, Angiotensin-converting enzyme (Rattus norvegicus, UniProt P47820); test: In vitro inhibitory activity against Angiotensin I converting enzyme (ACE)
T2 sequence (P47820 whole entry): T1 sequence (whole entry)

Canis familiaris [9] = test: Diuretic activity (ip) was tested in dogs; assay type: functional, organism-based; conditions: Canis lupus familiaris; Urine
[10] = target: T2, Angiotensin-converting enzyme; test: In vitro inhibitory activity against Angiotensin I converting enzyme(ACE)
Rattus norvegicus [11] = test: Diuretic activity (po); NI-No Increase; assay type: functional, organism-based; conditions: Urine
[12] = target: T1, Angiotensin-converting enzyme (Rattus norvegicus); test: Inhibition of Angiotensin I converting enzyme(ACE) at the dose of 30 mg/kg (ip) in rat; assay type: organism-based; design: dose 30 mg/kg; scale not given: the % may be the effect or the level left
[13] = target: T1, Angiotensin-converting enzyme (Rattus norvegicus); test: Inhibition of Angiotensin I converting enzyme(ACE) at the dose of 30 mg/kg (po) in rat; assay type: organism-based; design: dose 30 mg/kg
Rattus norvegicus [14] = test: Diuretic activity (ip);NI-No increase; assay type: functional, organism-based; conditions: Urine
[15] = target: T1, Angiotensin-converting enzyme (Rattus norvegicus); test: Inhibition of Angiotensin I converting enzyme(ACE) at the dose of 100 mg/kg (ip) in rat; assay type: organism-based; design: dose 100 mg/kg
Canis familiaris [16] = test: Diuretic activity (po) in dog; ND-Natriuresis&diuresis; assay type: functional, organism-based; conditions: Canis lupus familiaris; Urine
Canis familiaris [17] = test: Maximum percent decrease in blood pressure at the dose of 100 mg/kg ip; assay type: functional, Canis lupus familiaris; conditions: route intraperitoneal
[18] = target: Angiotensin-converting enzyme (Homo sapiens) (UniProt P12821); test: Inhibition of Angiotensin I converting enzyme(ACE) at the dose of 100 mg/kg (ip) in dog; assay type: organism-based; design: dose 100 mg/kg; conditions: Canis lupus familiaris; target entry is the homologue from another species
Rattus norvegicus [19] = test: Diuretic activity (po);ND- Natriuresis and diuresis; assay type: functional, organism-based; conditions: Urine
Rattus norvegicus [20] = species on record: Rattus norvegicus; test: Duration of action of the compound; assay type: functional
[21] = target: T1, Angiotensin-converting enzyme (Rattus norvegicus); test: In vitro inhibitory activity against Angiotensin I converting enzyme at 100 uM concentration.
[22] = target: T1, Angiotensin-converting enzyme (Rattus norvegicus); test: Inhibition of Angiotensin I converting enzyme at the dose of 30 mg/kg (po) in rat; assay type: organism-based; design: dose 30 mg/kg; scale not given: the % may be the effect or the level left
Canis familiaris [23] = test: Diuretic activity (po);NI- No Increase; assay type: functional, organism-based; conditions: Canis lupus familiaris; Urine
Rattus norvegicus [24] = test: Diuretic activity (po); N-Natriuresis; assay type: functional, organism-based; conditions: Urine
[25] = target: Angiotensin-converting enzyme (Homo sapiens) (UniProt P12821); test: In vitro inhibitory activity against Angiotensin I converting enzyme(ACE) in dog; conditions: Canis lupus familiaris; target entry is the homologue from another species; concentration not given here
Canis familiaris [26] = test: Diuretic activity (po) in dog; ND- Natriuresis and diuresis; assay type: functional, organism-based; conditions: Canis lupus familiaris; Urine
Rattus norvegicus [27] = test: Diuretic activity (po); ND-Natriuresis&diuresis; assay type: functional, organism-based; conditions: Urine
[28] = target: Angiotensin-converting enzyme (Homo sapiens) (UniProt P12821); test: […] inhibitory activity against angiotensin I converting enzyme (ACE) in dog
Canis familiaris [29] = test: Diuretic activity (ip) was tested in dogs;ND- Natriuresis and diuresis; assay type: functional, organism-based; conditions: Canis lupus familiaris; Urine
Rattus norvegicus [30] = test: Diuretic activity (ip);NI- No Increase; assay type: functional, organism-based; conditions: Urine
Rattus norvegicus [31] = test: Diuretic activity (po);NI- No increase; assay type: functional, organism-based; conditions: Urine
Canis familiaris [32] = test: Diuretic activity (po) in dog; NI-No Increase; assay type: functional, organism-based; conditions: Canis lupus familiaris; Urine

Angiotensin-converting enzyme (Homo sapiens), sequence (P12821 whole entry): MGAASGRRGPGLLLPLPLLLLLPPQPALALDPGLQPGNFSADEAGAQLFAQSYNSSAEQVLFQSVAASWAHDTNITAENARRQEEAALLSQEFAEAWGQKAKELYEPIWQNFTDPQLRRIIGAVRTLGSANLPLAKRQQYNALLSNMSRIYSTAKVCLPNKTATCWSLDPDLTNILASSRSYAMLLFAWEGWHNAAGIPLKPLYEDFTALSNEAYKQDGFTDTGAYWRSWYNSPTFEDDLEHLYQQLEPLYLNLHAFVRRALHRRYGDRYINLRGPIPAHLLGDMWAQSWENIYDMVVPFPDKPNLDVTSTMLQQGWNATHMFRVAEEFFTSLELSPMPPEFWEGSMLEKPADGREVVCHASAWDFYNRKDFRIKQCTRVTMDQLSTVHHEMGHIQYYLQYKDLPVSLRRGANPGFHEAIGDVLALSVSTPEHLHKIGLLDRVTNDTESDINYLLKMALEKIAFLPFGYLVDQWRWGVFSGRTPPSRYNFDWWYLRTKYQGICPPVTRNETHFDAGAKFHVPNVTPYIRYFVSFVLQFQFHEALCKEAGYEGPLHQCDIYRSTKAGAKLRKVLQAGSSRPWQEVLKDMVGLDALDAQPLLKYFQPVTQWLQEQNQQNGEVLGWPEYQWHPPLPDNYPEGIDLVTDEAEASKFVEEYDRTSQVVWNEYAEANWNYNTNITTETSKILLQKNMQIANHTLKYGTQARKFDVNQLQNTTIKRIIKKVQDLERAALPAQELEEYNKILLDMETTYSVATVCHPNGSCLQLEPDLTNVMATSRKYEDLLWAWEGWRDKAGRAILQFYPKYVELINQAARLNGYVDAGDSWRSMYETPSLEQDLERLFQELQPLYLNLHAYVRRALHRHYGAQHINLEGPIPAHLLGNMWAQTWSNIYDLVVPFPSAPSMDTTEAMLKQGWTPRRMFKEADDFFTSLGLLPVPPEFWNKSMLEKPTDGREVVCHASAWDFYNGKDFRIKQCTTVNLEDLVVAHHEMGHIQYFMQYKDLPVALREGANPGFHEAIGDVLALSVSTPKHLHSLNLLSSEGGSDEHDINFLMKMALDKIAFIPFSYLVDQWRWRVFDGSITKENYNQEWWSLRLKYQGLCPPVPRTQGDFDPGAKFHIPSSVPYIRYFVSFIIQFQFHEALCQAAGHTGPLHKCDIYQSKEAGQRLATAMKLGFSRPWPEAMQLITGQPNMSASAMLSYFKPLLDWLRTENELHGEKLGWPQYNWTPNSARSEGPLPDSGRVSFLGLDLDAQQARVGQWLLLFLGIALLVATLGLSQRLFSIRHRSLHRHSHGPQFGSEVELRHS

`CCOC(=O)[C@H](CCc1ccccc1)N[C@@H](C)C(=O)N1CCC[C@H]1C(=O)O` [ENALAPRIL] was tested, and the Activity (Canis familiaris [1]) was “inactive” and the Decrease (Canis familiaris [2]) was 38%.

`CCOC(=O)[C@H](CCc1ccccc1)N[C@@H](CCCCNC(=O)c1ccc(Cl)c(S(N)(=O)=O)c1)C(=O)N(CC(=O)O)C1Cc2ccccc2C1.Cl` was tested, and the ACE inhibition [3] was 50%, the Duration (Rattus norvegicus [4]) was over 3 h and the Activity [5] was 100%. For the same compound, the Activity (Rattus norvegicus [6]) was “No increase”, the ACE inhibition [7] was 100% and the IC50 [8] was 40 nM.

With `C[C@H](CS)C(=O)N1CCC[C@H]1C(=O)O` the Activity (Canis familiaris [9]) was “inactive”.

`C[C@H](N[C@@H](CCc1ccccc1)C(=O)O)C(=O)N(Cc1ccccc1)[C@H](CCCCNc1cc(Cl)c(S(N)(=O)=O)cc1C(=O)O)C(=O)O.Cl` was tested, and the IC50 [10] was 680 nM, the Activity (Rattus norvegicus [11]) was “No increase” and the Activity [12] was under 30%. It also gave a Duration (Rattus norvegicus [4]) of under 1 h and an ACE inhibition [13] of 50%.

In the case of `C[C@H](N[C@@H](CCc1ccccc1)C(=O)O)C(=O)N(CCCNC(=O)c1ccc(Cl)c(S(N)(=O)=O)c1)CC(=O)O`, the Activity (Rattus norvegicus [14]) is reported as “No increase” and the IC50 [8] is reported as 38000 nM.

For `C[C@H](N[C@@H](CCc1ccccc1)C(=O)O)C(=O)N(CCCC1Nc2cc(Cl)c(S(N)(=O)=O)cc2S(=O)(=O)N1)CC(=O)O.Cl` (some centres undefined), the ACE inhibition [15] was 100%, the IC50 [10] was 230 nM and the ACE inhibition [3] was 50%. The Activity (Canis familiaris [16]) was “Natriuresis and diuresis”, the Decrease (Canis familiaris [17]) was 14% and the inhibition [18] was over 100%. For the same compound, the Duration (Rattus norvegicus [4]) was over 3 h, the Activity (Rattus norvegicus [19]) was “Natriuresis and diuresis” and the ACE inhibition [7] was 100%. The ACE inhibition [13] was 50%.

In the case of `CCOC(=O)[C@H](CCc1ccccc1)N[C@@H](C)C(=O)N(CC(=O)O)NC(=O)c1ccc(Cl)c(S(N)(=O)=O)c1.Cl`, the Duration (Rattus norvegicus [20]) is reported as under 1 h, the inhibition [21] is reported as 40% and the Activity [22] is reported as 50%. For the same compound, the Activity (Canis familiaris [23]) was “No increase”.

In the case of `C[C@H](N[C@@H](CCc1ccccc1)C(=O)O)C(=O)N(Cc1ccccc1)[C@H](CCCCNc1cc(Cl)c(C(=O)O)cc1S(N)(=O)=O)C(=O)O.Cl`, the IC50 [10] is reported as 2400 nM, the Activity (Rattus norvegicus [24]) is reported as “N” and the ACE inhibition [3] is reported as 80%. It also gave a Duration (Rattus norvegicus [4]) of 0 h.

Compound `Cl.NCCCC[C@H](N[C@@H](CCc1ccccc1)C(=O)O)C(=O)N(CC(=O)O)CC1Nc2cc(Cl)c(S(N)(=O)=O)cc2S(=O)(=O)N1` (some centres undefined) has an ACE inhibition [15] of 100%, an inhibition [25] of 100% and an IC50 [10] of 220 nM. For the same compound, the ACE inhibition [3] was 80%, the Activity (Canis familiaris [26]) was “Natriuresis and diuresis” and the Decrease (Canis familiaris [17]) was 0%. The Activity (Rattus norvegicus [27]) was “Natriuresis and diuresis”, the Duration (Rattus norvegicus [4]) was 3 h and the ACE inhibition [7] was 100%. For the same compound, the ACE inhibition [13] was 80%.

For `NS(=O)(=O)c1cc2c(cc1Cl)NCNS2(=O)=O` [HYDROCHLOROTHIAZIDE], the Decrease (Canis familiaris [17]) was 0%, the ED50 [28] was over 100 mg/kg and the Activity (Canis familiaris [29]) was “Active”.

In the case of `Cl.NS(=O)(=O)c1cc(C(=O)NCCCC[C@H](N[C@@H](CCc2ccccc2)C(=O)O)C(=O)N2CCC[C@H]2C(=O)O)ccc1Cl`, the ACE inhibition [15] is reported as 100%, the ACE inhibition [3] is reported as 80% and the Activity (Rattus norvegicus [30]) is reported as “No increase”. It also gave a Duration (Rattus norvegicus [4]) of over 3 h, an ACE inhibition [7] of 100% and an IC50 [8] of 6.5 nM. For the same compound, the Activity (Rattus norvegicus [31]) was “No increase”.

`C[C@H](N[C@@H](CCc1ccccc1)C(=O)O)C(=O)N(CC(=O)O)CC1Nc2cc(Cl)c(S(N)(=O)=O)cc2S(=O)(=O)N1` (some centres undefined) was tested, and the ACE inhibition [15] was 100%, the IC50 [10] was 38000 nM and the Activity (Canis familiaris [32]) was “No increase”. For the same compound, the ACE inhibition [3] was 50%, the Decrease (Canis familiaris [17]) was 21% and the inhibition [18] was 100%. For the same compound, the Activity (Rattus norvegicus [27]) was “Natriuresis and diuresis”, the Duration (Rattus norvegicus [4]) was over 3 h and the ACE inhibition [7] was 80%. The ACE inhibition [13] was 50%.
